{
  "source": "paper PMC12459314",
  "about": "“Subcutaneous administration of a novel TRPM8 antagonist reverses cold hypersensitivity while attenuating the drop in core body temperature” (British journal of pharmacology, 2024)",
  "key": {"[1]": {"tested_on": "oxaliplatin-treated mice", "assay": "Oxaliplatin-induced cold hyperalgesia, cold-plantar test", "type": "in vivo, mouse", "method": "Male and female C57 BL/6J mice from Taconic Labs were randomized by sex and cage to oxaliplatin or vehicle groups. Mice were weighed and injected intraperitoneally (i.p.) with either oxaliplatin (3 mg·kg^−1), or vehicle (5% dextrose) once per day every day for five consecutive days, followed by five days off, and then by a second round of once per day for five more days. Therefore, mice received a total of 10 injections for a total of 30 mg·kg^−1. The average weight of the females was 18 g while of the males was 20 g. Consequently, the females received an average of 540 and the males 600 μg in total. Behavioural testing was started after the second round of oxaliplatin/vehicle administration. The cold-plantar test was used to assess changes in cold sensitivity. A 3 ml syringe barrel filled with powdered dry ice was used as the stimulus. The dry ice is placed on the glass (borosilicate glass; thickness, 1/8 in. (3.17 mm); temperature, 75°F (24°C), measured with a calibrated IR temperature probe) beneath the hindpaw and the latency to withdraw was determined ([Yilmaz et al., 2017]). The baseline withdrawal latency was determined from the mean of three stimulus applications (at an inter-stimulus interval of ~5 min), while that at each time interval after the administration of a test agent was again the mean of three stimulus applications bracketing the time point in question (i.e., 5 min before, at the time point, and 5 min after). Mice in the two groups defined by oxaliplatin treatment were subsequently randomized to the order of treatment (with the TRPM8 antagonist VBJ103, or vehicle control). VBJ103 and vehicle solutions were administered subcutaneously (s.c.) at doses of 3, 10 and 30 mg·kg^−1. Mice were tested every other day over 7 days so that each mouse received all four injections (vehicle and three doses of VBJ103). In a second cohort of male (n = 8) and female (n = 8) mice, all mice were treated with oxaliplatin as described above, and then randomized to the order of treatment with vehicle, VBJ103 (30 mg·kg^−1) alone, the TRPA1 antagonist, HC-030031 (200 mg·kg^−1) alone, or the combination of VBJ103 (30 mg·kg^−1) and HC-030031 (200 mg·kg^−1). A third cohort of male (n = 7) and female (n = 8) mice was also treated with oxaliplatin as described above. […] All test agents in both follow-up cohorts were again administered in a volume of 5 ml·kg^−1. Mice in both follow-up cohorts were again tested every other day over a period of 6 days. Finally, a fourth cohort of male (n = 4) and female (n = 4) mice was used to confirm that 200 mg·kg^−1 HC-030031 was sufficient to block TRPA1. For this experiment, mice were randomized to the order of treatment with vehicle or HC-030031 ([…])."}, "[2]": {"target": "T1, human TRPA1 (Homo sapiens, UniProt O75762)", "T1 construct": "expressed in transfected cells; host or cells: HEK293T", "T1 sequence (O75762 whole entry)": "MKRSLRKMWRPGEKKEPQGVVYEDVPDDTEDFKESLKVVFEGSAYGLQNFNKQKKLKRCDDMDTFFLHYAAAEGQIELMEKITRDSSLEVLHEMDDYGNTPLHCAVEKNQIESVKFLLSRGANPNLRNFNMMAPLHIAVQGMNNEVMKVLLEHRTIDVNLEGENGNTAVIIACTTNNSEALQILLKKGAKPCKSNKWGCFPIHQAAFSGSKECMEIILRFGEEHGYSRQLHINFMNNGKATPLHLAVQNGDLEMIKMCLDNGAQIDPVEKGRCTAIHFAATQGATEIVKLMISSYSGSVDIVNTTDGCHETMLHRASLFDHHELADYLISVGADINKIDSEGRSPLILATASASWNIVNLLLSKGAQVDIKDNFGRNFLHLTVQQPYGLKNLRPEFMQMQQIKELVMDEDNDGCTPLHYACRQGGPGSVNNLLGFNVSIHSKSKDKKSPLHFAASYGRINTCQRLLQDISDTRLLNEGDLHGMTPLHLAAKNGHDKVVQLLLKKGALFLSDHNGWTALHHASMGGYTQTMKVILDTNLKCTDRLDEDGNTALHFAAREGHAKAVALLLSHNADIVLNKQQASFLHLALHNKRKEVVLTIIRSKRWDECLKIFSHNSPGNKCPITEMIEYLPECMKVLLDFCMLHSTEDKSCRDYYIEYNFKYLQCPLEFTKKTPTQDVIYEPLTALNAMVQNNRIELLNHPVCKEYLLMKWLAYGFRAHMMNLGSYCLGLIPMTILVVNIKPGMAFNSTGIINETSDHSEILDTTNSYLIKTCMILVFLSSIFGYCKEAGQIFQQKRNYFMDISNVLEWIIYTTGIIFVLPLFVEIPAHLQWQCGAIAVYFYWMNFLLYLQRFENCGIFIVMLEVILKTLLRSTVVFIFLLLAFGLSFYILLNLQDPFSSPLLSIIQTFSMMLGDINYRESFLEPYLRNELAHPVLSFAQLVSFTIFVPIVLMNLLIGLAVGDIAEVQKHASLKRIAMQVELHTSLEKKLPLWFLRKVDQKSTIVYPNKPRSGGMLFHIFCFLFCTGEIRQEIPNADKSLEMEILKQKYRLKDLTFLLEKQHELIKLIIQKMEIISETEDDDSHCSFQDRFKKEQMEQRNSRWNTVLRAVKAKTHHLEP", "assay": "FlexStation Ca2+ flux assay in HEK293T cells transfected with human TRPA1", "type": "cell-based", "details": "against an EC80 concentration (10 μM) of AITC", "method": "(§1) The human embryonic kidney cell line (HEK293T, CRL-1573, RRID: CVCL_0045) was purchased from the American Type Culture Collection (Manassas, USA) and was maintained in Dulbecco’s Minimal Essential Medium (DMEM, Cellgro10013CV, Corning, Tewksbury, USA) that was supplemented with 10% fetal bovine serum (Gemini Bio-products), 2-mM L-glutamine (Invitrogen) and 100 U/mL penicillin and streptomycin (Invitrogen) and cultured in an incubator at 37°C, 5% CO2 and 95% humidity. Human TRPV1 and TRPA1 plasmid DNA (gift from D. Julius) were transiently bulk transfected individually into HEK293T cells using the FuGene HD transfection reagent (TFR, Promega, Madison, WI, USA) at a 3:1 ratio (TFR:DNA). Transfected cells were seeded at 10,000 cells per well in a volume of 25 μl into black walled collagen coated 384-well microtiter plates and cultured in an incubator at 37°C, 5% CO2 and 95% humidity for 48 h prior to the initiation of calcium mobilization experiments performed on a FlexStation 3 (Molecular Devices, Sunnyvale, CA, USA) platform equipped with a 16-channel robotic pipettor head and FLIPR tetra pipette tips. At 46 h post transfection, cell monolayers were preloaded with 25 μl of the FLIPR Calcium 6 dye (Molecular Devices) for 2 h in an incubator at 37°C, 5% CO2 and 95% humidity according to the manufacturer’s instructions. The plate was transferred to a FlexStation 3 microplate reader. Relative fluorescence units (RFUs) (Ex. 485 nm, Em 525 nm) were then acquired at 37°C in the kinetic mode. The run time for the agonist (1st) and antagonist (2nd) reads were 60 s each, for a total run time of 120 s, with an interval of 3.1 s between reads in the same well to allow all 16 wells in a column to be read sequentially, and the photomultiplier tube (PMT) level was set at medium, with 6 flashes per read. Baseline Fluo-6 RFUs were acquired for 18 s prior to the addition of compound in both the agonist and antagonist reads. For the first addition agonist read, the volume in the well was 50 μl, the pipette height was set at 40 μl, and 12.5 μl of the test compound was delivered at a speed of 2 μl·s^−1 after the baseline RFU’s acquisition period at 19 s, and the RFUs were acquired for an additional 41 s. For the second addition antagonist read, the volume in the well was 62.5 μl, the pipette height was set at 40 μl, and 12.5 μl of an EC80 agonist concentration was delivered at a speed of 2 μl/s after the baseline RFU’s acquisition period at 19 s, and the RFUs were acquired for an additional 41 s. The FlexStation 3 instrument settings, automated pipetting and data collection were all controlled by the SoftMax Pro software, version 7.1.2.\nTo analyse the agonist and antagonist Ca^2+ mobilization Fluo-6 RFU’s kinetic data, the RFU’s readings acquired throughout the 60-s acquisition period for each individual well were divided by the average RFU values acquired during the first 18-s baseline acquisition period from the same well to calculate a fold over baseline (FOB) ratio."}, "[3]": {"tested_on": "AITC-treated mice", "assay": "AITC-induced nociceptive behaviours", "type": "in vivo, mouse", "details": "HC-030031 200 mg·kg−1, 30 min before AITC 3 mg·kg−1 i.p.; quantified over 20 min", "method": "Male and female C57 BL/6J mice from Taconic Labs were randomized by sex and cage to oxaliplatin or vehicle groups. Mice were weighed and injected intraperitoneally (i.p.) with either oxaliplatin (3 mg·kg^−1), or vehicle (5% dextrose) once per day every day for five consecutive days, followed by five days off, and then by a second round of once per day for five more days. Therefore, mice received a total of 10 injections for a total of 30 mg·kg^−1. The average weight of the females was 18 g while of the males was 20 g. Consequently, the females received an average of 540 and the males 600 μg in total. Behavioural testing was started after the second round of oxaliplatin/vehicle administration. The cold-plantar test was used to assess changes in cold sensitivity. […] The dry ice is placed on the glass (borosilicate glass; thickness, 1/8 in. (3.17 mm); temperature, 75°F (24°C), measured with a calibrated IR temperature probe) beneath the hindpaw and the latency to withdraw was determined ([Yilmaz et al., 2017]). The baseline withdrawal latency was determined from the mean of three stimulus applications (at an inter-stimulus interval of ~5 min), while that at each time interval after the administration of a test agent was again the mean of three stimulus applications bracketing the time point in question (i.e., 5 min before, at the time point, and 5 min after). […]"}, "[4]": {"assay": "Core body temperature and home cage activity by radiotelemetry (s.c., i.p.)", "type": "in vivo, mouse", "details": "capsaicin 1 mg·kg−1 s.c.", "method": "Male and female C57Bl6J (Jackson Laboratories, Bar Harbor, USA, 8–12 weeks of age, 4 M:3F) were anaesthetised with isoflurane (2%–3% in 100% oxygen), and an HDX11 telemetry unit (Data Sciences) was inserted into the peritoneal cavity through a ventral midline incision. Animals were treated with buprenex (0.05 mg·kg^−1, s.c.every 8 h for 72 h) and enrofloxacin (2 mg·kg^−1, s.c.) and single-housed in a reverse light–dark cycle room (lights off 10 AM–10 PM). Mice were handled every day to acclimatise to injections, and experiments began 1 week later. All injections were performed between 1 and 2 PM. […] Body temperature was averaged into 5-min bins, whereas activity data were summed for the 5-min bin."}, "[5]": {"target": "T2, human TRPV1 (Homo sapiens, UniProt Q8NER1)", "T2 construct": "expressed in transfected cells; host or cells: HEK293T", "T2 sequence (Q8NER1 whole entry)": "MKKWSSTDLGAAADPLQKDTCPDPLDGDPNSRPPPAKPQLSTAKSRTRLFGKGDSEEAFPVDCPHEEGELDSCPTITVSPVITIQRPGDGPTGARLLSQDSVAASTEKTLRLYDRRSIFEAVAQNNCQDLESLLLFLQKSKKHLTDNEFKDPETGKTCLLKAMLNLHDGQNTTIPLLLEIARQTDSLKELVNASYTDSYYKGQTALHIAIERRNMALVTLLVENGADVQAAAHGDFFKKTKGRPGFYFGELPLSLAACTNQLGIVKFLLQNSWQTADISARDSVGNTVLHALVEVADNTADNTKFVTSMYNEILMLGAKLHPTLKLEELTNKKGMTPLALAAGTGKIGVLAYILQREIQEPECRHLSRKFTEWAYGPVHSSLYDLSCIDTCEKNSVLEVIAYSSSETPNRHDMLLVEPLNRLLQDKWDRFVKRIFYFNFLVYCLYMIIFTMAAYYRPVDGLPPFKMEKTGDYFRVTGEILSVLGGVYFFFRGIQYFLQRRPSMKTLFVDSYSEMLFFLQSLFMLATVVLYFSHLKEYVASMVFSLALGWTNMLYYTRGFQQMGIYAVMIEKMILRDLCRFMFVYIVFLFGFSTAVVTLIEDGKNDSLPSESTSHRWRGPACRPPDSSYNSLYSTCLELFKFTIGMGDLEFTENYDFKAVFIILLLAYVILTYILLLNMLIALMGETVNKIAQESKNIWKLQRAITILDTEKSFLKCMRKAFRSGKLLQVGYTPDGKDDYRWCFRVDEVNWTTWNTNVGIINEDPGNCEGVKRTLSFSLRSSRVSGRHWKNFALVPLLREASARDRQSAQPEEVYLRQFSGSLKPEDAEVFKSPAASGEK", "assay": "FlexStation Ca2+ flux assay in HEK293T cells transfected with human TRPV1", "type": "cell-based", "method": "as §1, with “Transfected cells were seeded at 10,000 cells per well in a volume of 25 μl into black walled collagen coated 384-well microtiter plates and cultured in an incubator at 37°C, 5% CO2 and 95% humidity for 48 h prior to the initiation of calcium mobilization experiments performed on a FlexStation 3 (Molecular Devices, Sunnyvale, CA, USA) platform equipped with a 16-channel robotic pipettor head and FLIPR tetra pipette tips. At 46 h post transfection, cell monolayers were preloaded with 25 μl of the FLIPR Calcium 6 dye (Molecular Devices) for 2 h in an incubator at 37°C, 5% CO2 and 95% humidity according to the manufacturer’s instructions.” left out, “The FlexStation 3 instrument settings, automated pipetting and data collection were all controlled by the SoftMax Pro software, version 7.1.2.” left out"}, "[6]": {"assay": "Partition coefficient (logD), shake flask method", "type": "physicochemical", "details": "n-octanol / pH 7.4 phosphate buffer", "method": "The partition coefficient (logD) at pH 7.4 of VBJ103 was determined using the shake flask method by Absorption Systems (Exton, PA, USA). The buffer was prepared by combining 50 ml of 0.2-M solution of KH2PO4 with 150 ml of dH2O and then adjusting to pH 7.4 with 10-N NaOH. In a single incubation, 15 μl of a 10-mM DMSO solution of each test article was added to test tubes which contained 0.75 ml of n-octanol and 0.75 ml of pH 7.4 phosphate buffer. Testosterone was also introduced to each tube as an internal control, also at a dosing concentration of 100 μM. These samples were gently mixed on a benchtop rotator for 1 h at room temperature. The tubes were then removed from the rotator, and the aqueous and organic phases were allowed to separate for 1 h. An aliquot of the organic layer was taken and diluted 200-fold into a mixture of 1:1 buffer: acetonitrile (ACN). An aliquot of the aqueous layer was taken and diluted 2-fold, 10-fold and 200-fold into a mixture of 1:1 buffer: ACN. All samples were assayed by LC–MS/MS on a Thermo BDS Hypersil C18 column (30 × 2.1 mm, 3 μm) using electrospray ionization, as previously reported ([Journigan et al., 2020])."}, "[7]": {"details": "ref Journigan et al, 2020; cited from earlier work"}, "[8]": {"assay": "Core body temperature by radiotelemetry after i.c.v. administration", "type": "in vivo, mouse", "details": "3 nmol in 1 μL i.c.v.; within 60 min; in five of eight mice", "method": "A second set of male C57Bl6J mice (Jackson Laboratories, n = 8) was implanted with telemetry as described above and a 26-gauge brain cannula (Plastics One) targeted at the lateral ventricle using coordinates relative to Bregma: 0.3 mm caudal, 1.0 mm lateral, 3.0 mm ventral. This second procedure was also performed under isoflurane anesthesia. The brain cannula was secured to the skull with two screws and dental cement. Animals were treated with buprenex (0.05 mg·kg^−1, s.c. every 8 h for 48 h) and enrofloxacin (2 mg·kg^−1, s.c.), singly housed and handled daily as described above. A single i.c.v. injection was performed every other day in a randomized order and included: (1) Galanin-like peptide (3 nmol/1 μL), (2) VBJ103 (306 nmol/1 μL) and (3) VBJ103 vehicle (1 μL). Galanin-like peptide produced a decrease in body temperature in five of eight mice. Therefore, body temperature data in response to VBJ103 and vehicle are presented in these five mice. These studies were carried out with a single dose of VBJ103 (306 nmol/1 μL or ~4 mg·kg^−1), which was the highest dose achievable due to constraints of the injection volume and the solubility of VBJ103."}},
  "data": [
    {"compound": "Fc1ccc(C(OCCN2CCN(CCCc3ccccc3)CC2)c2ccc(F)cc2)cc1", "note": "[GBR12909, reference compound]", "values": [
      {"measurement": "influence on withdrawal latency to noxious cold stimuli", "setting": "[1]; 20 mg·kg−1 alone, third cohort, vehicle 1:1 DMSO:water", "result": "no detectable influence"}
    ]},
    {"compound": "CC(C)c1ccc(NC(=O)Cn2cnc3c2c(=O)n(C)c(=O)n3C)cc1", "note": "[HC-030031, reference compound]", "values": [
      {"measurement": "IC50", "setting": "[2]", "result": "2000 ± 830", "unit": "nM"},
      {"measurement": "maximum inhibition at TRPA1", "setting": "[2]", "result": 54, "unit": "%"},
      {"measurement": "influence on oxaliplatin-induced cold hypersensitivity", "setting": "[1]; 200 mg·kg−1 alone, second cohort, vehicle 0.5% Methocel", "result": "failed to detect an influence"},
      {"measurement": "AITC-induced nociceptive behaviours", "setting": "[3]", "result": "significantly attenuated"}
    ]},
    {"compound": "COc1cc(CNC(=O)CCCC/C=C/C(C)C)ccc1O", "note": "[capsaicin, reference compound]", "values": [
      {"measurement": "time of peak drop in CBT", "setting": "[4]", "result": "≤ 60", "unit": "min"},
      {"measurement": "drop in CBT versus s.c. VBJ103 or PBMC", "setting": "[4]; positive control", "result": "significantly larger drop"}
    ]},
    {"compound": "Oc1cc2c(cc1O)CN(C(=S)NCCc1ccc(Cl)cc1)CCC2", "note": "[capsazepine, reference compound]", "values": [
      {"measurement": "IC50", "setting": "[5]", "result": "566 ± 86", "unit": "nM"}
    ]},
    {"compound": "Cl.Cl.Cl.Cl.Cl.Cl.N.N.N.N.N.N.N.N.N.N.N.N.N.N.[O-2].[O-2].[Ru+3].[Ru+3].[Ru+4]", "note": "[ruthenium red, reference compound]", "values": [
      {"measurement": "IC50", "setting": "[2]", "result": "53 ± 7", "unit": "nM"}
    ]},
    {"compound": "C[C@]12CC[C@H]3[C@@H](CCC4=CC(=O)CC[C@@]43C)[C@@H]1CC[C@@H]2O", "note": "[testosterone, reference compound]", "values": [
      {"measurement": "logD at 1 h", "setting": "[6]", "result": 3.09},
      {"measurement": "Mouse Liver microsomes, T1/2", "setting": "[7]", "result": 3.7, "unit": "min"}
    ]},
    {"compound": "galanin-like peptide: peptide given i.c.v. as positive control for a decrease in body temperature (APAHRGRGGWTLNSAGYLLGPVLHLPQMGDQDGKRETALEILDLWKAIDGLPYSHPPQPS; Galanin-like peptide; UniProt Q9UBC7 25-84, looked up) [reference compound]", "values": [
      {"measurement": "decrease in CBT", "setting": "[8]", "result": "> 3", "unit": "°C"}
    ]}
  ]
}
